Reference: patent publication US12071424B2, “IRE1 small molecule inhibitors” (Cornell University, priority 2017, dated 2024)

Columns and labels:
IRE1a [1] = assay: IRE1a Endoribonuclease Nanoluciferase Assay (XBP1 luciferase reporter in 293T cells); format: cell-based, human; conditions: ER stressor, tested as Formic Acid Salt (37: HCl Salt)
Method: Compounds disclosed herein assessed for disruption of IRE1 signaling using a IRE1a Endoribonuclease Nanoluciferase Assay. Briefly, 25×10^5 293T cells were seeded in a 10 cm^2 tissue culture plate. About 24 hours later, the cells were transfected with Effectene. In a 15 mL tube, the following was added: 2 ug XBP1 luciferase reporter plasmid (PGK-Luc2-P2A-XBP1u-Nanoluciferase-Pest); 300 ul EC buffer; and 16 ul Enhancer, followed by incubation at room temp for 5 minutes. Next, 60 ul Effectene (Qiagen 301427) was added, followed by incubation at room temperature for 10 minutes. 2.6 mL cDMEM media was added. Old media was aspirated from the cells, followed by addition of 7 mL fresh media. Full transfection mixture was added dropwise to cells. Cells were incubated for 6 hours, followed by trypsinization, centrifugation and resuspension in 11 mL fresh cDMEM media. 100 uL of cells were plated per a well in a 96 well plate. A day later, ER stressors of choice +/−inhibitors were added. To harvest, media was aspirated from cells completely, then 50 uL 1× passive lysis buffer (Promega: E1941) was added per well and put on shaker (300 rpm) for 30 minutes at room temperature. Cells were centrifuged, and 15 uL sample per well was added to a new, opaque white 384 well plate (Corning 3570). 15 uL OneGlo (nanoluciferase kit, Promega N1630) was added. Plates were spun down, placed on shaker (300 rpm) for 10 minutes. Plates were read on luminometer, 1000 ms integration time per well. 15 uL Stop an Glo (nanoluciferase kit) was added. Plates were spun down, placed on shaker (300 rpm) for 10 minutes. Plates were read on luminometer, 1000 ms second integration time per well. Recordings are provided below in Table 4.

IRE1a [2] = biological target: T1, IRE1a (Homo sapiens, UniProt O75460); assay: In vitro FRET assay (IRE1a cleavage of XBP1 RNA probe); format: biochemical; conditions: 2 nM SignalChem IRE1a, tested as Formic Acid Salt (37: HCl Salt)
T1 construct: purchased SignalChem
Method: In vitro FRET assay was performed to evaluate the ability of select compounds to inhibit IRE1, the results of which are summarized in Table 3. To perform the in vitro FRET assay, 1× complete assay buffer (CAB: […], 50 mM sodium citrate pH 7.15, 1 mM magnesium acetate, 0.02% tween 20) was used to SignalChem IRE1a protein to a final concentration of 2 nM. Selected compounds were serially diluted with DMSO in a non-binding black 384-well plate for a total of 15 ul in each well. 2 ul of the serially diluted compound or DMSO control were then added to new wells containing 98 ul of 1× CAB, for a total volume of 100 ul, 10 ul of which were then transferred to wells of a new plate. 5 ul of the diluted IRE1a was then added to each well. 5 ul of a […] XBP1 RNA probe was then added to each well. Fluorescence was then read over 30 minutes in kinetic mode (485/515 nm).
Two RNA probes were used, XBP1 wildtype (SEQ ID NO: 2) which is able to be spliced by active IRE1a or XBP1 mutant (SEQ ID NO: 3) which is unable to be spliced. Each probe contained a 5′ 6-FAM modification and a 3′ IOWA black FQ modification. […]

T1 sequence (O75460 19-977): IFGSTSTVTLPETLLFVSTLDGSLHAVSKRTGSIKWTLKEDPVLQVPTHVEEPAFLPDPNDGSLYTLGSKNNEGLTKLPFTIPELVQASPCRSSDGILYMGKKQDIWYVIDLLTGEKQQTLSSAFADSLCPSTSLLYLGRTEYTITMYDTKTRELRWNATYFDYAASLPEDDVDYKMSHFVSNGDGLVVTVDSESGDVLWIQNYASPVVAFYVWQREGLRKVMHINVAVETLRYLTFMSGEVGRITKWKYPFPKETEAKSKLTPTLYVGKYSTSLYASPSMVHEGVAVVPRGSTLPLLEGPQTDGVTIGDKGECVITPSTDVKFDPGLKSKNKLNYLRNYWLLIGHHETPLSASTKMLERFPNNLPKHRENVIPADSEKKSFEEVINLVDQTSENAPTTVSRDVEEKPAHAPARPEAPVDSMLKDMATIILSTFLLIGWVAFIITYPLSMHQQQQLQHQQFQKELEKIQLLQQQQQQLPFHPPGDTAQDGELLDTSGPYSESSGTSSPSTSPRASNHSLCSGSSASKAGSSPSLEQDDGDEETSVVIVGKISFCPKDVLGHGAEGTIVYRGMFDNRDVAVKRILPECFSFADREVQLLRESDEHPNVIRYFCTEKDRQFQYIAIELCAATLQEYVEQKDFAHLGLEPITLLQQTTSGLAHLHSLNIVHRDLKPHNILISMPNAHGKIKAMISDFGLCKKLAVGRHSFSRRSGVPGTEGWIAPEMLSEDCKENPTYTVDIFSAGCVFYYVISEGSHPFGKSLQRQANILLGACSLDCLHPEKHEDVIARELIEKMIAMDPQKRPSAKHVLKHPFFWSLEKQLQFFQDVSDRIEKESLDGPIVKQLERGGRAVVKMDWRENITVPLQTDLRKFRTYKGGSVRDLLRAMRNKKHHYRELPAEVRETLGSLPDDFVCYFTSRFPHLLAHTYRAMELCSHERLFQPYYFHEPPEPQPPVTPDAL

| EC50 (IRE1a [1]; Homo sapiens, HEK-293T) | IC50 (IRE1a [2]) | EC50 (IRE1a [1]) | Structure (SMILES) |
| --- | --- | --- | --- |
| 50 to 100 nM | ≤ 5 nM | – | COc1nc(NS(=O)(=O)c2ccccc2Cl)c(F)cc1-c1cc(F)c2nc(N[C@H]3CC[C@H](N(C)C)CC3)ncc2c1 [Compound 155, 2-chloro-N-(5-(2-(((1r,4r)-4-(dimethylamino)cyclohexyl)amino)-8-fluoroquinazolin-6-yl)-3-fluoro-6-methoxypyridin-2-yl)benzenesulfonamide] |
| ≤ 5 nM | ≤ 5 nM | – | CCc1cc(-c2ccc(NS(=O)(=O)c3cccc(Cl)c3Cl)nc2C)cc2cnc(N[C@H]3CC[C@H](N(C)C)CC3)nc12 [Compound 152, 2,3-dichloro-N-(5-(2-(((1r,4r)-4-(dimethylamino)cyclohexyl)amino)-8-ethylquinazolin-6-yl)-6-methylpyridin-2-yl)benzenesulfonamide] |
| ≤ 5 nM | ≤ 5 nM | – | CCc1cc(-c2cnc(NS(=O)(=O)c3ccccc3Cl)nc2OC)cc2cnc(N[C@H]3CC[C@H](N(C)C)CC3)nc12 [Compound 154, 2-chloro-N-(5-(2-(((1r,4r)-4-(dimethylamino)cyclohexyl)amino)-8-ethylquinazolin-6-yl)-4-methoxypyrimidin-2-yl)benzenesulfonamide] |
| 100 to 10000 nM | ≤ 5 nM | – | CCc1cc(-c2ccc(NS(=O)(=O)c3ccccc3Cl)nc2OC)cc2cnc(N[C@H]3CC[C@@H](N(C)C)CC3)nc12 [Compound 141, 2-chloro-N-(5-(2-(((1s,4s)-4-(dimethylamino)cyclohexyl)amino)-8-ethylquinazolin-6-yl)-6-methoxypyridin-2-yl)benzenesulfonamide] |
| 5 to 50 nM | ≤ 5 nM | – | Cc1nc(NS(=O)(=O)c2ccccc2Cl)c(F)cc1-c1ccc2nc(N[C@H]3CC[C@H](N(C)C)CC3)ncc2c1 [Compound 153, 2-chloro-N-(5-(2-(((1r,4r)-4-(dimethylamino)cyclohexyl)amino)quinazolin-6-yl)-3-fluoro-6-methylpyridin-2-yl)benzenesulfonamide] |
| ≤ 5 nM | ≤ 5 nM | – | CCc1cc(-c2ccc(NS(=O)(=O)c3ccccc3Cl)nc2C)cc2cnc(NC3CCC(N(C)C)C[C@@H]3F)nc12 (stereo in doubt) [Compound 151, 2-chloro-N-(5-(2-(((1R,2S,4R)-4-(dimethylamino)-2-fluorocyclohexyl)amino)-8-ethylquinazolin-6-yl)-6-methylpyridin-2-yl)benzenesulfonamide] |
| ≤ 5 nM | ≤ 5 nM | – | CCc1c(F)c(-c2cc(F)c(NS(=O)(=O)c3ccccc3Cl)nc2OC)cc2cnc(N[C@H]3CC[C@H](N(C)C)CC3)nc12 [Compound 163, 2-chloro-N-(5-(2-(((1r,4r)-4-(dimethylamino)cyclohexyl)amino)-8-ethyl-7-fluoroquinazolin-6-yl)-3-fluoro-6-methoxypyridin-2-yl)benzenesulfonamide] |

Second part, the compound before the results:

| Structure (SMILES) | EC50 (IRE1a [1]; Homo sapiens, HEK-293T) | IC50 (IRE1a [2]) | EC50 (IRE1a [1]) |
| --- | --- | --- | --- |
| CCc1cc(-c2ccc(NS(=O)(=O)c3ccccc3Cl)nc2C)cc2cnc(N[C@H]3CC[C@H](N(C)CC4CCC4)CC3)nc12 [Compound 130, 2-chloro-N-(5-(2-(((1r,4r)-4-((cyclobutylmethyl)(methyl)amino)cyclohexyl)amino)-8-ethylquinazolin-6-yl)-6-methylpyridin-2-yl)benzenesulfonamide] | ≤ 5 nM | ≤ 5 nM | – |
| CCc1cc(-c2ccc(NS(=O)(=O)c3ccccc3Cl)c(F)c2)cc2cnc(N[C@@H]3CC[C@@H](N)[C@H](C)C3)nc12 [Compound 74, N-(4-(2-(((1R,3R,4R)-4-amino-3-methylcyclohexyl)amino)-8-ethylquinazolin-6-yl)-2-fluorophenyl)-2-chlorobenzene-sulfonamide] | ≤ 5 nM | ≤ 5 nM | – |
| CCc1cc(-c2ccc(NS(=O)(=O)c3ccccc3Cl)c(F)c2)cc2cnc(NC34CCC(N)(CC3)CC4)nc12 [Compound 87, N-(4-(2-((4-aminobicyclo[2.2.2]octan-1-yl)amino)-8-ethylquinazolin-6-yl)-2-fluorophenyl)-2-chlorobenzene-sulfonamide] | ≤ 5 nM | ≤ 5 nM | – |
| N[C@H]1CC[C@H](Nc2ncc3cc(-c4nnc(NS(=O)(=O)c5ccccc5Cl)s4)ccc3n2)CC1 [Compound 89, N-(5-(2-(((1r,4r)-4-aminocyclohexyl)amino)quinazolin-6-yl)-1,3,4-thiadiazol-2-yl)-2-chlorobenzene-sulfonamide] | 100 to 10000 nM | ≤ 5 nM | – |
| N[C@H]1CC[C@H](Nc2ncc3cc(-c4ncc(NS(=O)(=O)c5ccccc5Cl)cc4F)ccc3n2)CC1 [Compound 51, N-(6-(2-(((1r,4r)-4-aminocyclohexyl)amino)quinazolin-6-yl)-5-fluoropyridin-3-yl)-2-chlorobenzene-sulfonamide] | 50 to 100 nM | ≤ 5 nM | – |
| CCc1cc(-c2ccc(NS(=O)(=O)c3ccccc3Cl)nc2OC)cc2cnc(N[C@H]3CC[C@H](N(C)C)CC3)nc12 [Compound 99, 2-chloro-N-(5-(2-(((1r,4r)-4-(dimethylamino)cyclohexyl)amino)-8-ethylquinazolin-6-yl)-6-methoxypyridin-2-yl)benzenesulfonamide] | ≤ 5 nM | ≤ 5 nM | – |
| CCc1cc(-c2cc(F)c(NS(=O)(=O)c3ccccc3Cl)nc2C)cc2cnc(N[C@H]3CC[C@H](N(C)C)CC3)nc12 [Compound 97, 2-chloro-N-(5-(2-(((1r,4r)-4-(dimethylamino)cyclohexyl)amino)-8-ethylquinazolin-6-yl)-3-fluoro-6-methylpyridin-2-yl)benzenesulfonamide] | ≤ 5 nM | ≤ 5 nM | – |
| CCc1cc(-c2cnc(NS(=O)(=O)c3ccccc3Cl)cc2OC)cc2cnc(N[C@H]3CC[C@H](N)CC3)nc12 [Compound 92, N-(5-(2-(((1r,4r)-4-aminocyclohexyl)amino)-8-ethylquinazolin-6-yl)-4-methoxypyridin-2-yl)-2-chlorobenzene-sulfonamide] | 100 to 10000 nM | ≤ 5 nM | – |
| N[C@H]1CC[C@H](Nc2ncc3cc(-c4c(F)cc(NS(=O)(=O)c5ccccc5Cl)cc4F)ccc3n2)CC1 [Compound 62, N-(4-(2-(((1r,4r)-4-aminocyclohexyl)amino)quinazolin-6-yl)-3,5-difluorophenyl)-chlorobenzene-sulfonamide] | 5 to 50 nM | ≤ 5 nM | – |
| CCc1cc(-c2ccc(NS(=O)(=O)c3ccccc3Cl)c(F)c2)cc2cnc(N[C@H]3CC4C[C@H](N)CC4C3)nc12 (stereo partly drawn) [Compound 83] | – | 5 to 50 nM | 50 to 100 nM |
| CCc1cc(-c2cc(OC)c(NS(=O)(=O)c3ccccc3Cl)nn2)cc2cnc(N[C@H]3CC[C@H](N)CC3)nc12 [Compound 66, N-(6-(2-(((1r,4r)-4-aminocyclohexyl)amino)-8-ethylquinazolin-6-yl)-4-methoxypyridazin-3-yl)-2-chlorobenzene-sulfonamide] | 50 to 100 nM | ≤ 5 nM | – |
| CCc1cc(-c2ncc(NS(=O)(=O)c3ccccc3Cl)nc2OC)cc2cnc(N[C@H]3CC[C@H](N)CC3)nc12 [Compound 98, N-(5-(2-(((1r,4r)-4-aminocyclohexyl)amino)-8-ethylquinazolin-6-yl)-6-methoxypyrazin-2-yl)-2-chlorobenzenesulfonamide] | ≤ 5 nM | ≤ 5 nM | – |
| CCc1cc(-c2ccc(NS(=O)(=O)c3ccccc3Cl)c(F)c2)cc2cnc(N[C@H]3CC[C@H](NC(=O)[C@@H](N)C(C)C)CC3)nc12 [Compound 58, (S)-2-amino-N-((1r,4S)-4-((6-(4-((2-chlorophenyl)sulfonamido)-3-fluorophenyl)-8-ethylquinazolin-2-yl)amino)cyclohexyl)-3-methylbutanamide] | ≤ 5 nM | – | – |
